Data on twelve compounds can be found in ChEMBL document CHEMBL1201862, “PubChem BioAssay data set” (2004).

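Interpolation was linear, between the two tested concentrations surrounding the appropriate level; five concentrations were tested over 48 hours in 96-well plates. GI50 marks 50% less growth.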 The source made the active and inactive calls. Cut-off read from the data, not from the text of the source: active = GI50 up to about 1.1 µM and inactive = higher. Some results are limits rather than exact numbers.

Test systems include NCI-H522; Malme-3M; CAKI-1; SF-268; SNB-78; TK-10; OVCAR-5; UACC-62; HOP-62; RPMI-8226; KM12; SK-OV-3; U-251; HCT-116; OVCAR-8; HCT-15; A549; T47D; MDA-N; MCF7.
Assay in all cases: NCI-60 cell line screen, 48 h

On to `O=C1NC(=O)C2C(=O)NC(=O)C1C2c1c(Cl)cccc1Cl` (stereo not drawn), for which the GI50 in the assay with NCI-H522 is > 77.1 µM (inactive); in the assay on Malme-3M, > 100 µM (inactive); with CAKI-1 it was > 100 µM (inactive); in the assay on SF-268 it was > 51.1 µM (inactive); in the assay on SNB-78 it was > 100 µM (inactive); with TK-10, > 100 µM (inactive). The GI50 in the assay on OVCAR-5 is > 100 µM (inactive); in the assay with UACC-62, > 100 µM (inactive); in the assay on HOP-62, > 100 µM (inactive); in the assay with RPMI-8226, > 46.6 µM (inactive); with KM12 it was > 69.2 µM (inactive); in the assay on SK-OV-3, > 100 µM (inactive). In addition, the GI50 in the assay on U-251 was > 66.1 µM (inactive); in the assay on HCT-116 it was > 42.6 µM (inactive); with OVCAR-8, > 66.2 µM (inactive); in the assay with HCT-15, more than 100 µM; in the assay on A549, > 72.4 µM (inactive).

Turning to `COC1(OC)CC2C(=O)N(Cc3ccccc3)C1C(S(=O)(=O)c1ccccc1)C2S(=O)(=O)c1ccccc1` (stereo not drawn), the GI50 with NCI-H522 is 2.02 µM (inactive); in the assay with Malme-3M, 15.6 µM (inactive); with CAKI-1, 13.8 µM (inactive); with SF-268 it was 14.1 µM (inactive); in the assay with SNB-78, 18.5 µM (inactive); in the assay with TK-10, 15.2 µM (inactive). Further, the GI50 in the assay on OVCAR-5 is 19.9 µM (inactive); in the assay with UACC-62, 13.4 µM (inactive); with HOP-62, > 100 µM (inactive); with RPMI-8226, 15.9 µM (inactive); in the assay on KM12 it was 16.4 µM (inactive); in the assay on SK-OV-3 it was 30 µM (inactive). Moreover, the GI50 in the assay with U-251 is 13.6 µM (inactive); in the assay on HCT-116 it was 16.4 µM (inactive); in the assay with OVCAR-8, 8.07 µM (inactive); in the assay with HCT-15, 3.62 µM; in the assay on A549, 29.6 µM (inactive).

Turning to `NC1=C(O)c2cccc3cccc(c23)C1=O`, the GI50 in the assay on NCI-H522, with Malme-3M, in the assay on CAKI-1, with SF-268, in the assay on SNB-78 and in the assay with TK-10 was > 100 µM (inactive) throughout. Besides, the GI50 in the assay with OVCAR-5, in the assay with UACC-62, in the assay with RPMI-8226, in the assay with KM12, in the assay with SK-OV-3 and in the assay on U-251 was > 100 µM (inactive) in each case. Further, the GI50 in the assay with HCT-116 was > 100 µM (inactive); with OVCAR-8, > 100 µM (inactive); in the assay on HCT-15 it was more than 100 µM; in the assay on A549, > 100 µM (inactive).

Turning to `Cc1cccc(N2C(=O)C(=O)C(c3nc4ccccc4s3)C(=O)C2=O)c1C`, the GI50 in the assay on NCI-H522, with Malme-3M, in the assay with CAKI-1, in the assay on SF-268, in the assay on SNB-78 and in the assay on TK-10 was > 100 µM (inactive) in each case. The GI50 with OVCAR-5, in the assay with UACC-62, with HOP-62, in the assay with RPMI-8226, with SK-OV-3 and with U-251 was > 100 µM (inactive) throughout. For the same compound, the GI50 in the assay on HCT-116 is > 100 µM (inactive); with OVCAR-8 it was > 100 µM (inactive); with HCT-15, more than 100 µM; in the assay on A549 it was > 100 µM (inactive).

Regarding `CC(=O)/C(=N\O)C(=O)Nc1ccc(Cl)cc1Cl`, the GI50 in the assay with NCI-H522 was 97.9 µM (inactive); in the assay with Malme-3M, > 100 µM (inactive); with CAKI-1 it was > 100 µM (inactive); in the assay on SF-268, > 100 µM (inactive); in the assay on SNB-78 it was > 100 µM (inactive); with TK-10, > 100 µM (inactive). For the same compound, the GI50 in the assay with OVCAR-5, in the assay with UACC-62, with HOP-62, in the assay on RPMI-8226, in the assay on KM12 and in the assay with SK-OV-3 was > 100 µM (inactive) each time. The GI50 in the assay with U-251 is > 100 µM (inactive); in the assay with HCT-116 it was > 100 µM (inactive); in the assay on OVCAR-8 it was > 100 µM (inactive); in the assay on HCT-15, more than 100 µM; in the assay with A549, > 100 µM (inactive).

Turning to `CC1(C)CC(c2c[nH]c3ccccc23)=CC2=Nc3ccccc3C21O` (stereo not drawn), the GI50 in the assay with NCI-H522 is 34.8 µM (inactive); with Malme-3M, > 100 µM (inactive); with CAKI-1, 48.8 µM (inactive); with SF-268, > 100 µM (inactive); in the assay with SNB-78, 76 µM (inactive); in the assay with TK-10, > 100 µM (inactive). The GI50 with OVCAR-5, with UACC-62, in the assay on HOP-62, with RPMI-8226, in the assay with KM12 and in the assay on SK-OV-3 was > 100 µM (inactive) in each case. The GI50 is 33.2 µM (inactive) in the assay on U-251; 41.8 µM (inactive) in the assay with HCT-116; 27 µM (inactive) in the assay with OVCAR-8; more than 100 µM with HCT-15; 35.5 µM (inactive) with A549.

Regarding `CCCCCCCCCCC(=O)CCCCCCC(=O)O`, the GI50 was 21.4 µM (inactive) with NCI-H522; 20.8 µM (inactive) in the assay with Malme-3M; 30.5 µM (inactive) in the assay with CAKI-1; 50.5 µM (inactive) in the assay on SF-268; 69.8 µM (inactive) with SNB-78; 32.1 µM (inactive) in the assay on TK-10. In addition, the GI50 with OVCAR-5 is 16.3 µM (inactive); in the assay on UACC-62 it was 17.9 µM (inactive); with HOP-62, 25.4 µM (inactive); with RPMI-8226, 13.4 µM (inactive); with KM12, 15.5 µM (inactive); in the assay with SK-OV-3 it was 53.8 µM (inactive). In addition, the GI50 was 20.7 µM (inactive) with U-251; 13.8 µM (inactive) in the assay on HCT-116; 17.8 µM (inactive) with OVCAR-8; 13.5 µM in the assay on HCT-15; 15.3 µM (inactive) in the assay with A549.

As to `COc1cc([C@@H]2c3cc4c(cc3[C@@H](NC(=O)c3ccc(OC(C)=O)cc3)C3COC(=O)[C@@H]32)OCO4)cc(OC)c1O` (stereo partly drawn), the GI50 was 1.73 µM (inactive) in the assay with NCI-H522; 2.43 µM (inactive) in the assay with Malme-3M; 1.92 µM (inactive) in the assay on CAKI-1; 2.01 µM (inactive) in the assay with SF-268; 19.8 µM (inactive) in the assay with SNB-78; 10.7 µM (inactive) in the assay on TK-10. The GI50 is 4.36 µM (inactive) in the assay with OVCAR-5; 0.547 µM (active) in the assay with UACC-62; 0.714 µM (active) with HOP-62; 1.32 µM (inactive) with RPMI-8226; 2.66 µM (inactive) in the assay on KM12; 2.47 µM (inactive) with SK-OV-3. In addition, the GI50 is 0.308 µM (active) in the assay with U-251; 2.61 µM (inactive) in the assay on HCT-116; 2.48 µM (inactive) with OVCAR-8; 9.95 µM with HCT-15; 0.275 µM (active) with A549.

With `CN(C)CC1CCCC/C1=N\OC(=O)c1ccccc1` (stereo not drawn), the GI50 with NCI-H522, in the assay with Malme-3M, in the assay on CAKI-1, in the assay on SF-268, with SNB-78 and in the assay with TK-10 was > 100 µM (inactive) throughout. The GI50 in the assay on OVCAR-5, in the assay with UACC-62, with HOP-62, with RPMI-8226, in the assay with KM12 and with SK-OV-3 was > 100 µM (inactive) each time. Besides, the GI50 is > 100 µM (inactive) in the assay with U-251; > 100 µM (inactive) with HCT-116; > 100 µM (inactive) in the assay on OVCAR-8; more than 100 µM with HCT-15; > 100 µM (inactive) in the assay on A549.

As for `O=C1C(CN2CCCCC2)CCCC1CN1CCCCC1` (stereo not drawn), the GI50 with Malme-3M was 8.07 µM (inactive); with SNB-78, 21.4 µM (inactive); with OVCAR-5 it was > 55.6 µM (inactive); with UACC-62 it was > 55.7 µM (inactive); with T47D it was 1.64 µM (inactive); with RPMI-8226, 2.24 µM (inactive). For the same compound, the GI50 is 37 µM (inactive) in the assay with KM12; > 100 µM (inactive) in the assay on SK-OV-3; 16 µM (inactive) with MDA-N; > 100 µM (inactive) in the assay on U-251; 15.4 µM (inactive) with HCT-116; 18.5 µM (inactive) in the assay with OVCAR-8. In addition, the GI50 in the assay with HCT-15 was 18.3 µM; in the assay on MCF7, 2.53 µM (inactive); with A549, > 92 µM (inactive).

Consider `COc1cc2cc3c4cc(OC)c(OC)cc4cc[n+]3c(C)c2cc1OC.O=C([O-])CS(=O)(=O)O`, for which the GI50 was 4.88 µM (inactive) in the assay with NCI-H522; > 100 µM (inactive) in the assay on Malme-3M; > 100 µM (inactive) in the assay with CAKI-1; 0.811 µM (active) with SF-268; 48.4 µM (inactive) in the assay on SNB-78; > 100 µM (inactive) in the assay on TK-10. For the same compound, the GI50 in the assay on OVCAR-5 was > 100 µM (inactive); in the assay with UACC-62, 65.9 µM (inactive); with T47D it was 26.8 µM (inactive); in the assay with HOP-62 it was 42.8 µM (inactive); in the assay on RPMI-8226, 68.4 µM (inactive); with KM12, > 100 µM (inactive). Further, the GI50 in the assay on SK-OV-3 is > 100 µM (inactive); in the assay with MDA-N, 49.4 µM (inactive); in the assay with U-251, 8.69 µM (inactive); in the assay on HCT-116 it was > 100 µM (inactive); in the assay on OVCAR-8, 24.3 µM (inactive); with HCT-15, more than 100 µM. The GI50 in the assay with MCF7 is 72.8 µM (inactive); in the assay on A549 it was > 100 µM (inactive).

On to `c1ccc2c(CNCCCCCCCCCCCCNCc3cccc4ccccc34)cccc2c1`, for which the GI50 is 1.88 µM (inactive) in the assay on NCI-H522; 2.21 µM (inactive) in the assay on Malme-3M; 1.92 µM (inactive) with CAKI-1; 2.22 µM (inactive) with SF-268; 1.9 µM (inactive) in the assay with SNB-78; 2.14 µM (inactive) in the assay with TK-10. Moreover, the GI50 with OVCAR-5 is 1.54 µM (inactive); in the assay with UACC-62, 1.82 µM (inactive); in the assay on HOP-62, 2.14 µM (inactive); with RPMI-8226, 1.04 µM (active); in the assay on KM12, 1.61 µM (inactive); with SK-OV-3, 13.3 µM (inactive). The GI50 in the assay on U-251 is 1.77 µM (inactive); with HCT-116, 1.61 µM (inactive); in the assay with OVCAR-8, 1.63 µM (inactive); in the assay with HCT-15, 1.66 µM; in the assay on A549 it was 1.85 µM (inactive).
